The record followed here is patent US20080221116A1, “ISOXAZOLINE ALPHA 1a/1d ADRENORECEPTOR ANTAGONISTS” (priority 2006, published 2008).

Structures are written as SMILES. Values joined by “and” are separate entries in the source; they are usually repeats but may differ in a detail not shown here. Equal entries are not always repeated. Where two headings read alike, the source gives them in different places.

What all share (conditions): COS-7 membranes
The target in one experiment is T1, α1a-AR (Homo sapiens, UniProt P35348).
T1 construct: expressed in transfected cells; host or cells: COS-7 cells (African Green monkey kidney), membranes
T1 sequence (P35348 1-466): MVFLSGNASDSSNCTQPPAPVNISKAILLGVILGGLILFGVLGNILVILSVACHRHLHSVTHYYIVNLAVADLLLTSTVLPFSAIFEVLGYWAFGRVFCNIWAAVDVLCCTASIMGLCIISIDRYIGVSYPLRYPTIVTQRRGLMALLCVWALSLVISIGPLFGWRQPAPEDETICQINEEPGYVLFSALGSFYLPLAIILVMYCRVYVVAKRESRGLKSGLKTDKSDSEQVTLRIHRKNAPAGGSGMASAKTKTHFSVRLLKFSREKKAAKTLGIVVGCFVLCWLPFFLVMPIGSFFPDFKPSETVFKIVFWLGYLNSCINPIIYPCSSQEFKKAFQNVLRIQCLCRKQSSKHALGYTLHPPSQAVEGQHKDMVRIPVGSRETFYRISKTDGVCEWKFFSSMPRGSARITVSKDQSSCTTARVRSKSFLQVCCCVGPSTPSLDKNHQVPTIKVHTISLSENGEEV
Put plainly: α1-Adrenergic Receptor Binding Assay, 125I-HEAT radio-ligand binding, transfected COS-7 cell membranes, α1a subtype. How it is done: (§1) Membranes were prepared from COS-7 cells (African Green monkey kidney SV40-transformed cells) that had been transfected with one of the three α1-AR subtypes by the following method: COS cells from ten 100 mm tissue culture plates were scraped into a 5 ml volume of TE (a mixture of 50 mM tris(hydroxymethyl)aminomethane hydrochloride (Tris-HCl) and 5 mM ethylenediaminetetraacetic acid (EDTA) at pH 7.4). The cell suspension was disrupted with a Brinkman Polytron (at a setting of 8) for 10 sec. The disrupted cells were centrifuged at 1000×g for 10 min at 4° C. Supernatants were centrifuged at 34,500×g for 20 min at 4° C. The membrane pellets were suspended in a 2 ml volume of TNE (a mixture of 50 mM Tris-HCl, 5 mM EDTA and 150 mM NaCl at pH7.4). An aliquot of the membrane suspension was stored at −70° C. until use. The protein concentration was determined using a BioRad “DC” protein assay kit following membrane solubilization with Triton X-100.
(§2) Triplicate determinations of radio-ligand binding in the presence of increasing concentrations of testing compound were made. The reagents were added to 96-well polypropylene plate wells. Each assay well contained 140 μL TNE, 25 μL 125′-2-(β-4-hydroxyphenyl)ethylaminomethyltetralone (^125I-HEAT) (specific activity 2200 Ci/mmol, Dupont-New England Nuclear, […] final), 10 μL testing compound dissolved in dimethyl sulfoxide (DMSO) ([…] to 10 μM in half-log increments, final), and 25 μL appropriate α1-AR membrane subtype suspension in TNE (0.5 ng/μL for the α1a and α1b subtypes and 13 ng/μL for the α1d subtype). The plate was incubated at rt for 1 hr. The contents of the wells were filtered through a glass filter (type C) (GF/C) membrane Unifilter plate (Packard Instruments) using the Packard Filtermate cell harvester. The filter plates were dried in a vacuum oven for 30 min at 40° C. 25 μL Microscint 20 liquid scintillation fluid (Packard Instuments) was added to each well. The radioactive content was analyzed in the TopCount microplate scintillation counter (Packard Instruments).
(§3) The Ki values (in nM) shown in Table 1 were determined using GraphPad Prism software.

For the next experiment, the target named is T2, α1b-AR (Homo sapiens, UniProt P35368).
T2 construct: expressed in transfected cells; host or cells: COS-7 cells (African Green monkey kidney), membranes
T2 sequence (P35368 1-520): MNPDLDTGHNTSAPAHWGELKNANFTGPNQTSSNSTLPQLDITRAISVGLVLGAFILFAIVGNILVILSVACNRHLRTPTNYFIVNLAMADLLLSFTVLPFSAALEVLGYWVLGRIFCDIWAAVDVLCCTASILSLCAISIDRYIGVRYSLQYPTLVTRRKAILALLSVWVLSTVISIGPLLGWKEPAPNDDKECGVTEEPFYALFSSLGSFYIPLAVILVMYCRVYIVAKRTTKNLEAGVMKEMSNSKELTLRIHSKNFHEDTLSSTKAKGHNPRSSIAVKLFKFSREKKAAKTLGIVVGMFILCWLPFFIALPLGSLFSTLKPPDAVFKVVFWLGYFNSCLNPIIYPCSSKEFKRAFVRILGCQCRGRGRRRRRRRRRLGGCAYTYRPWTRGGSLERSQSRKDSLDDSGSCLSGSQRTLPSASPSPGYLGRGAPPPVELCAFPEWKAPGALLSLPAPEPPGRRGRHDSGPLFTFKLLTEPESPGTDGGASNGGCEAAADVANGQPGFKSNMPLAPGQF
Put plainly: α1-Adrenergic Receptor Binding Assay, 125I-HEAT radio-ligand binding, transfected COS-7 cell membranes, α1b subtype. As for the experimental part: as §1, §2, §3

A further experiment deals with T3, α1d-AR (Homo sapiens, UniProt P25100).
T3 construct: expressed in transfected cells; host or cells: COS-7 cells (African Green monkey kidney), membranes
T3 sequence (P25100 1-572): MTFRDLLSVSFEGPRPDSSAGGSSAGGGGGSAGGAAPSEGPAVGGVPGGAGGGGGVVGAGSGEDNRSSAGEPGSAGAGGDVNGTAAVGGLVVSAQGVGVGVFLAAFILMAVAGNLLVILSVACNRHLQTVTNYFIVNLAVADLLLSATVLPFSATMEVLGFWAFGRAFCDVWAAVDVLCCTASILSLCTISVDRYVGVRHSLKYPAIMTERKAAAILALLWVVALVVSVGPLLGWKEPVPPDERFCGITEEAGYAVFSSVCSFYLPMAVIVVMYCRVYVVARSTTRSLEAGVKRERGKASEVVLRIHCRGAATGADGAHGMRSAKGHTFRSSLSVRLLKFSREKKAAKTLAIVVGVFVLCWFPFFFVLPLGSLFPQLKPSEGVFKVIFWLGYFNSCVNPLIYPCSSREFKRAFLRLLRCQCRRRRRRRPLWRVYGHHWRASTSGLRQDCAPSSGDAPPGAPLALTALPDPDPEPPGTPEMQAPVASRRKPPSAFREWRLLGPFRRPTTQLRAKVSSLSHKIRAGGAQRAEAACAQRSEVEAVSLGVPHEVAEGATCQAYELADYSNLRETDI
Put plainly: α1-Adrenergic Receptor Binding Assay, 125I-HEAT radio-ligand binding, transfected COS-7 cell membranes, α1d subtype. As for the experimental part: as §1, §2, §3

Setting [1] is: average value, read-out: Alpha 1 Ki α1a (1) Average Value.
[2] abbreviates: individual values, read-out: Alpha 1 Ki α1a (2) Individual Values.
The mark [3] stands for this setting: average value, read-out: Alpha 1 Ki α1b (1) Average Value.
The mark [4] stands for this setting: individual values, read-out: Alpha 1 Ki α1b (2) Individual Values.
Setting [5] is: average value, read-out: Alpha 1 Ki α1d (1) Average Value.
Where [6] appears, read: individual values, read-out: Alpha 1 Ki α1d (2) Individual Values.

For `CC(C)Oc1ccccc1N1CCN(CC2CC(CN3CCCCC3=O)=NO2)CC1` (single isomer, unassigned) [Compound 2, 1-{(5R*)-5-[4-(2-isopropoxy-phenyl)-piperazin-1-ylmethyl]-4,5-dihydro-isoxazol-3-ylmethyl}-piperidin-2-one], the Ki on α1a-AR (setting [1]) is 0.79 nM; on α1a-AR (setting [2]), 1 nM and 0.7 nM and 0.86 nM and 0.6 nM; on α1b-AR (setting [3]), 53.5 nM; at α1b-AR (setting [4]), 79 nM and 41 nM and 56 nM and 38 nM; on α1d-AR (setting [5]) it was 4.5 nM; at α1d-AR (setting [6]), 5.2 nM and 4.7 nM and 5.8 nM and 2.3 nM.
For `CC(C)Oc1ccccc1N1CCN(CC2CC(CN3CCCCC3=O)=NO2)CC1` (single isomer, unassigned) [Compound 3, 1-{(5S*)-5-[4-(2-isopropoxy-phenyl)-piperazin-1-ylmethyl]-4,5-dihydro-isoxazol-3-ylmethyl}-piperidin-2-one], the Ki amounted to 2.5 nM at α1a-AR (setting [1]); 2.5 nM on α1a-AR (setting [2]); 215 nM on α1b-AR (setting [3]); 215 nM at α1b-AR (setting [4]); 20 nM at α1d-AR (setting [5]); 20 nM on α1d-AR (setting [6]).
Consider `CC(C)Oc1ccccc1N1CCN(CC2CC(C(=O)N3CCc4ccccc43)=NO2)CC1` (single isomer, unassigned) [Compound 36, (2,3-dihydro-indol-1-yl)-{(5S*)-5-[4-(2-isopropoxy-phenyl)-piperazin-1-ylmethyl]-4,5-dihydro-isoxazol-3-yl}-methanone], for which the inhibition constant Ki on α1a-AR (setting [1]) turned out to be 38.2 nM; on α1b-AR (setting [3]), 191 nM; on α1d-AR (setting [5]), 90.2 nM.
As for `CC(C)Oc1ccccc1N1CCN(CC2CC(C(=O)N3CCc4ccccc43)=NO2)CC1` (single isomer, unassigned) [Compound 37, (2,3-dihydro-indol-1-yl)-{(5R*)-5-[4-(2-isopropoxy-phenyl)-piperazin-1-ylmethyl]-4,5-dihydro-isoxazol-3-yl}-methanone], the Ki on α1a-AR (setting [1]) turned out to be 0.54 nM; on α1a-AR (setting [2]), 0.54 nM; at α1b-AR (setting [3]), 37 nM; at α1b-AR (setting [4]), 37 nM; at α1d-AR (setting [5]), 0.28 nM; at α1d-AR (setting [6]), 0.28 nM.
In the case of `CC(C)Oc1ccccc1N1CCN(CC2CC(C(=O)N3CCC(Oc4ccccc4)CC3)=NO2)CC1` (single isomer, unassigned) [Compound 38, {(5R*)-5-[4-(2-isopropoxy-phenyl)-piperazin-1-ylmethyl]-4,5-dihydro-isoxazol-3-yl}-(4-phenoxy-piperidin-1-yl)-methanone], the Ki on α1a-AR (setting [1]) was determined as 132 nM; on α1a-AR (setting [2]), 132 nM; at α1b-AR (setting [3]), 639 nM; at α1b-AR (setting [4]), 639 nM; on α1d-AR (setting [5]), 55 nM; on α1d-AR (setting [6]), 55 nM.
Turning to `CC(C)Oc1ccccc1N1CCN(CC2CC(C(=O)N3CCC(Oc4ccccc4)CC3)=NO2)CC1` (single isomer, unassigned) [Compound 39, {(5S*)-5-[4-(2-isopropoxy-phenyl)-piperazin-1-ylmethyl]-4,5-dihydro-isoxazol-3-yl}-(4-phenoxy-piperidin-1-yl)-methanone], the Ki is 1.6 nM at α1a-AR (setting [1]); 1.4 nM and 1.8 nM on α1a-AR (setting [2]); 217 nM at α1b-AR (setting [3]); 223 nM and 210 nM at α1b-AR (setting [4]); 8.55 nM at α1d-AR (setting [5]); 10.4 nM and 6.7 nM on α1d-AR (setting [6]).
Take `CC(C)Oc1ccccc1N1CCN(CC2CC(C(=O)N3CCC(C(=O)c4ccc(F)cc4)CC3)=NO2)CC1` (single isomer, unassigned) [Compound 40, [4-(4-fluoro-benzoyl)-piperidin-1-yl]-{(5S*)-5-[4-(2-isopropoxy-phenyl)-piperazin-1-ylmethyl]-4,5-dihydro-isoxazol-3-yl}-methanone]: the Ki at α1a-AR (setting [1]) worked out at 6.44 nM; at α1a-AR (setting [2]), 6.44 nM; on α1b-AR (setting [3]) it was 531 nM; on α1b-AR (setting [4]) it was 531 nM; on α1d-AR (setting [5]), 4.61 nM; on α1d-AR (setting [6]), 4.61 nM.
For `CC(C)Oc1ccccc1N1CCN(CC2CC(C(=O)N3CCC(C(=O)c4ccc(F)cc4)CC3)=NO2)CC1` (single isomer, unassigned) [Compound 41, [4-(4-fluoro-benzoyl)-piperidin-1-yl]-{(5R*)-5-[4-(2-isopropoxy-phenyl)-piperazin-1-ylmethyl]-4,5-dihydro-isoxazol-3-yl}-methanone], the Ki was 240 nM on α1a-AR (setting [1]); 240 nM on α1a-AR (setting [2]); 1690 nM at α1b-AR (setting [3]); 1690 nM at α1b-AR (setting [4]); 58.1 nM on α1d-AR (setting [5]); 58.1 nM at α1d-AR (setting [6]).
With `CC(C)Oc1ccccc1N1CCN(CC2CC(C(=O)N3CC(C)(C)c4cc(Br)ccc43)=NO2)CC1` (single isomer, unassigned) [Compound 42, (5-bromo-3,3-dimethyl-2,3-dihydro-indol-1-yl)-{(5R*)-5-[4-(2-isopropoxy-phenyl)-piperazin-1-ylmethyl]-4,5-dihydro-isoxazol-3-yl}-methanone], the Ki on α1a-AR (setting [1]) was found to be 5.87 nM; at α1a-AR (setting [2]), 5.87 nM; at α1b-AR (setting [3]), 289 nM; on α1b-AR (setting [4]), 289 nM; at α1d-AR (setting [5]) it was 0.44 nM; on α1d-AR (setting [6]), 0.44 nM.
With `CC(C)Oc1ccccc1N1CCN(CC2CC(C(=O)N3CC(C)(C)c4cc(Br)ccc43)=NO2)CC1` (single isomer, unassigned) [Compound 43, (5-bromo-3,3-dimethyl-2,3-dihydro-indol-1-yl)-{(5S*)-5-[4-(2-isopropoxy-phenyl)-piperazin-1-ylmethyl]-4,5-dihydro-isoxazol-3-yl}-methanone], the Ki turned out to be 317 nM on α1a-AR (setting [1]); 317 nM at α1a-AR (setting [2]); 1080 nM at α1b-AR (setting [3]); 1080 nM at α1b-AR (setting [4]); 104 nM on α1d-AR (setting [5]); 104 nM on α1d-AR (setting [6]).
